Laboratory results taken from US20040101544A1, “Method for detoxifying a carbohydrate containing solution” (priority 2000, published 2004).
pEC50: −log10 of the molar value.

Tests used:
[1] = Biological effects of 3,4-dideoxy-glucosone-3-ene (test not specified)
[2] = system: mouse fibroblasts cells L-929; assay: In vitro assay for cytotoxicity: inhibition of cell growth (ICG); type: cell-based
Experimental: Carbohydrate containing medical solutions used for peritoneal dialysis were mixed with 1 part of a cell growth medium and 10% (volume/volume) fetal calf serum was added (Wieslander et al., 1991, Kidney Int. 40:77-79). The basal cytotoxicity of the medical solution used for peritoneal dialysis was determined on mouse fibroblasts cells L-929 (CCL-1; ATTC, Rockville, Md., USA) as described earlier (Wieslander et al. 1993, Advances in Peritoneal Dialys, 9:31-35) and expressed as inhibition of cell growth (ICG).
Mouse fibroblast cells (L-929) were grown and incubated according to Järkelid et al., 2000, ATLA 28, 415-425. Inhibition of cell growth was determined for a 4% PD fluid with the following composition
Additionally dose response curves were made in MEM (Minimal Essential Medium).
The results from incubation of L-929 cells with synthetic 3,4-dideoxy-glucosone-3-ene added in MEM are presented in table 1 below showing the values plotted in FIG. 5. The 4% PD solution was autoclaved while the PD fluid was sterile filtered. The PD solutions were tested twice (% ICG1 and % ICG2) and the mean ICG was calculated.

[3] = system: mouse fibroblasts cells L-929; conditions: alone or in mixtures at the concentrations found in PD fluids; cited from earlier work

3,4-dideoxy-glucosone-3-ene [3,4-DGE]
concentration below which no biological effects seem to be present [1]: < 2 μM
% ICG1 ([2]; 5 μM 3,4-DGE in MEM): 24%
% ICG2 ([2]; 5 μM 3,4-DGE in MEM): 12%
% ICG3 ([2]; 5 μM 3,4-DGE in MEM): 31%
mean % ICG ([2]; 5 μM 3,4-DGE in MEM): 21,5%
% ICG1 ([2]; 15 μM 3,4-DGE in MEM): 47%
% ICG2 ([2]; 15 μM 3,4-DGE in MEM): 49%
% ICG3 ([2]; 15 μM 3,4-DGE in MEM): 44%
mean % ICG ([2]; 15 μM 3,4-DGE in MEM): 46,5%
% ICG1 ([2]; 52 μM 3,4-DGE in MEM): 92%
% ICG2 ([2]; 52 μM 3,4-DGE in MEM): 80%
% ICG3 ([2]; 52 μM 3,4-DGE in MEM): 88%
mean % ICG ([2]; 52 μM 3,4-DGE in MEM): 84%
% ICG2 ([2]; 2,5 μM 3,4-DGE in MEM): 5%
% ICG3 ([2]; 2,5 μM 3,4-DGE in MEM): 20%
mean % ICG ([2]; 2,5 μM 3,4-DGE in MEM): 12,5%
% ICG1 ([2]; 10,4 μM 3,4-DGE in MEM): 36%
% ICG2 ([2]; 10,4 μM 3,4-DGE in MEM): 51%
% ICG3 ([2]; 10,4 μM 3,4-DGE in MEM): 42%
mean % ICG ([2]; 10,4 μM 3,4-DGE in MEM): 46,5%
% ICG1 ([2]; 24,3 μM 3,4-DGE in MEM): 63%
% ICG2 ([2]; 24,3 μM 3,4-DGE in MEM): 65%
% ICG3 ([2]; 24,3 μM 3,4-DGE in MEM): 58%
mean % ICG ([2]; 24,3 μM 3,4-DGE in MEM): 61,5%
pEC50 ([2]; dose response curves in MEM, L-929 cells): 4.80
toxicity in cytotoxicity test ([2]; fibroblast cells): toxic to fibroblast cells

O=CC(=O)C[C@H](O)[C@H](O)CO [3-deoxyglucosone]
toxicity in the L-929 system [3]: None of these five listed compounds show toxicity

CC=O [acetaldehyde]
toxicity in the L-929 system [3]: None of these five listed compounds show toxicity

C=O [formaldehyde]
toxicity in the L-929 system [3]: None of these five listed compounds show toxicity

O=CC=O [glyoxal]
toxicity in the L-929 system [3]: None of these five listed compounds show toxicity
